ChEMBL document CHEMBL6103575, “Design, synthesis and evaluation of (E)-1-(4-(2-(1H-pyrazol-5-yl)vinyl)phenyl) derivatives as next generation selective RET inhibitors overcoming RET solvent front mutations (G810C/R)” (Eur J Med Chem, 2025)

Legend:
[1] = molecular target: BDNF/NT-3 growth factors receptor (Homo sapiens, UniProt Q16620); test: Inhibition of TRKB (unknown origin)
[2] = Induction of cell cycle arrest in mouse BaF3 cells harboring CCDC6-RET G810R mutant assessed as accumulation of cells at G0/G1 phase at 100 nM incubated for 24 hrs by propidium iodide staining based analysis (reference value: 52.63%); assay type: functional
[3] = Induction of cell cycle arrest in mouse BaF3 cells harboring CCDC6-RET assessed as accumulation of cells at G2/M phase at 300 nM incubated for 24 hrs by propidium iodide staining based analysis (reference value: 34.11%); assay type: functional
[4] = Induction of apoptosis in mouse BaF3 cells harboring CCDC6-RET G810C mutant assessed as late apoptotic cells at 30 nM incubated for 48 hrs by Annexin V-PE staining based flow cytometry analysis (Rvb =4.30%); assay type: functional
[5] = Induction of cell cycle arrest in mouse BaF3 cells harboring CCDC6-RET G810C mutant assessed as accumulation of cells at S phase at 30 nM incubated for 24 hrs by propidium iodide staining based analysis (reference value: 12.47%); assay type: functional
[6] = Induction of apoptosis in mouse BaF3 cells harboring CCDC6-RET G810C mutant assessed as late apoptotic cells at 100 nM incubated for 48 hrs by Annexin V-PE staining based flow cytometry analysis (Rvb =4.30%); assay type: functional
[7] = Induction of apoptosis in mouse BaF3 cells harboring CCDC6-RET G810R mutant assessed as viable cells at 300 nM incubated for 48 hrs by Annexin V-PE staining based flow cytometry analysis (Rvb =86.40%); assay type: functional; conditions: read-out: Activity
[8] = Induction of apoptosis in mouse BaF3 cells harboring CCDC6-RET assessed as viable cells at 30 nM incubated for 48 hrs by Annexin V-PE staining based flow cytometry analysis (Rvb =91.16%); assay type: functional; conditions: read-out: Activity
[9] = Induction of cell cycle arrest in mouse BaF3 cells harboring CCDC6-RET assessed as accumulation of cells at G0/G1 phase at 100 nM incubated for 24 hrs by propidium iodide staining based analysis (reference value: 52.51%); assay type: functional
[10] = Induction of cell cycle arrest in mouse BaF3 cells harboring CCDC6-RET G810R mutant assessed as accumulation of cells at G2/M phase at 100 nM incubated for 24 hrs by propidium iodide staining based analysis (reference value: 33.61%); assay type: functional
[11] = Induction of apoptosis in mouse BaF3 cells harboring CCDC6-RET G810C mutant assessed as necrotic cells at 10 nM incubated for 48 hrs by Annexin V-PE staining based flow cytometry analysis (Rvb =0.48%); assay type: functional
[12] = Induction of apoptosis in mouse BaF3 cells harboring CCDC6-RET G810R mutant assessed as viable cells at 30 nM incubated for 48 hrs by Annexin V-PE staining based flow cytometry analysis (Rvb =86.40%); assay type: functional; conditions: read-out: Activity
[13] = Induction of apoptosis in mouse BaF3 cells harboring CCDC6-RET G810R mutant assessed as necrotic cells at 100 nM incubated for 48 hrs by Annexin V-PE staining based flow cytometry analysis (Rvb =0.30%); assay type: functional
[14] = molecular target: Proto-oncogene tyrosine-protein kinase receptor Ret (Homo sapiens, UniProt P07949, V804M); test: Inhibition of RET (unknown origin) V804M mutant
Sequence of Proto-oncogene tyrosine-protein kinase receptor Ret (P07949 29-1114 V804M limits assumed): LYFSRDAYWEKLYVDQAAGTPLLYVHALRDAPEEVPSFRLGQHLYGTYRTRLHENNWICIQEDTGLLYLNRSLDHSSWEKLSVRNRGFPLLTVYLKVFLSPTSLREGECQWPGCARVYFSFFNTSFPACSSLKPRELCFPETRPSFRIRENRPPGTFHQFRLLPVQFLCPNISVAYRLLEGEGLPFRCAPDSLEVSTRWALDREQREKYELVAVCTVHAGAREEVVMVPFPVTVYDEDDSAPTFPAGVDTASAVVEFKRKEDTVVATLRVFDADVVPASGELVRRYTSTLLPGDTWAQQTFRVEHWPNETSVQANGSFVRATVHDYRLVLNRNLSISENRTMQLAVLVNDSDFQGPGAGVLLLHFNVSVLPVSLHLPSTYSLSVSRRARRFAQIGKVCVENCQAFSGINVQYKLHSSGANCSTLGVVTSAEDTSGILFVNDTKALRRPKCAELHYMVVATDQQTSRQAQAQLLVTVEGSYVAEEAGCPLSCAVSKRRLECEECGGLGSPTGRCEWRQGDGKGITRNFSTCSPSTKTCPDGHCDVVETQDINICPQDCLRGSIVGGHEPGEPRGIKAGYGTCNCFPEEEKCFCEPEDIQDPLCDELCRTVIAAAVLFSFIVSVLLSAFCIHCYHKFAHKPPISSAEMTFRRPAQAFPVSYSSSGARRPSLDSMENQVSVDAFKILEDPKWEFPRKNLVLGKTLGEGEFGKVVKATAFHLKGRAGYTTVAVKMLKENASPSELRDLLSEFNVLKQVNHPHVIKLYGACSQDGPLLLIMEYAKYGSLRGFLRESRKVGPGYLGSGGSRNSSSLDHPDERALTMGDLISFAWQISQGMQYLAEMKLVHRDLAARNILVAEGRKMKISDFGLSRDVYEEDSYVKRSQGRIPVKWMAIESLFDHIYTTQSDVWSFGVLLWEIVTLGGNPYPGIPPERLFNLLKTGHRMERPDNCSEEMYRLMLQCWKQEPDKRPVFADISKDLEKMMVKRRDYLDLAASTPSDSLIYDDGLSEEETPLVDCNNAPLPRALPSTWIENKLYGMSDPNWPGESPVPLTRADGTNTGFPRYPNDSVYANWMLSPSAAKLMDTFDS

[15] = Induction of cell cycle arrest in mouse BaF3 cells harboring CCDC6-RET assessed as accumulation of cells at S phase at 300 nM incubated for 24 hrs by propidium iodide staining based analysis (reference value: 13.27%); assay type: functional
[16] = Induction of cell cycle arrest in mouse BaF3 cells harboring CCDC6-RET assessed as accumulation of cells at G0/G1 phase at 30 nM incubated for 24 hrs by propidium iodide staining based analysis (reference value: 52.51%); assay type: functional
[17] = Induction of cell cycle arrest in mouse BaF3 cells harboring CCDC6-RET assessed as accumulation of cells at G2/M phase at 100 nM incubated for 24 hrs by propidium iodide staining based analysis (reference value: 34.11%); assay type: functional
[18] = Induction of cell cycle arrest in mouse BaF3 cells harboring CCDC6-RET assessed as accumulation of cells at G2/M phase at 10 nM incubated for 24 hrs by propidium iodide staining based analysis (reference value: 34.11%); assay type: functional
BaF3 = test: Antitumor activity against mouse BaF3 cells implanted in SCID mouse assessed as tumor growth inhibition at 25 mg/kg, ip administered once daily for 10 days; assay type: functional; conditions: BaF3, 240 h, time 10 day, read-out: TGI
[19] = Induction of apoptosis in mouse BaF3 cells harboring CCDC6-RET G810R mutant assessed as viable cells at 100 nM incubated for 48 hrs by Annexin V-PE staining based flow cytometry analysis (Rvb =86.40%); assay type: functional; conditions: read-out: Activity
[20] = Induction of apoptosis in mouse BaF3 cells harboring CCDC6-RET G810C mutant assessed as necrotic cells at 30 nM incubated for 48 hrs by Annexin V-PE staining based flow cytometry analysis (Rvb =0.48%); assay type: functional
[21] = Induction of apoptosis in mouse BaF3 cells harboring CCDC6-RET G810C mutant assessed as viable cells at 10 nM incubated for 48 hrs by Annexin V-PE staining based flow cytometry analysis (Rvb =86.47%); assay type: functional; conditions: read-out: Activity
[22] = Induction of apoptosis in mouse BaF3 cells harboring CCDC6-RET assessed as early apoptotic cells at 100 nM incubated for 48 hrs by Annexin V-PE staining based flow cytometry analysis (Rvb =6.21%); assay type: functional
[23] = Induction of apoptosis in mouse BaF3 cells harboring CCDC6-RET assessed as late apoptotic cells at 10 nM incubated for 48 hrs by Annexin V-PE staining based flow cytometry analysis (Rvb =2.44%); assay type: functional

Sequence of BDNF/NT-3 growth factors receptor (Q16620 whole entry): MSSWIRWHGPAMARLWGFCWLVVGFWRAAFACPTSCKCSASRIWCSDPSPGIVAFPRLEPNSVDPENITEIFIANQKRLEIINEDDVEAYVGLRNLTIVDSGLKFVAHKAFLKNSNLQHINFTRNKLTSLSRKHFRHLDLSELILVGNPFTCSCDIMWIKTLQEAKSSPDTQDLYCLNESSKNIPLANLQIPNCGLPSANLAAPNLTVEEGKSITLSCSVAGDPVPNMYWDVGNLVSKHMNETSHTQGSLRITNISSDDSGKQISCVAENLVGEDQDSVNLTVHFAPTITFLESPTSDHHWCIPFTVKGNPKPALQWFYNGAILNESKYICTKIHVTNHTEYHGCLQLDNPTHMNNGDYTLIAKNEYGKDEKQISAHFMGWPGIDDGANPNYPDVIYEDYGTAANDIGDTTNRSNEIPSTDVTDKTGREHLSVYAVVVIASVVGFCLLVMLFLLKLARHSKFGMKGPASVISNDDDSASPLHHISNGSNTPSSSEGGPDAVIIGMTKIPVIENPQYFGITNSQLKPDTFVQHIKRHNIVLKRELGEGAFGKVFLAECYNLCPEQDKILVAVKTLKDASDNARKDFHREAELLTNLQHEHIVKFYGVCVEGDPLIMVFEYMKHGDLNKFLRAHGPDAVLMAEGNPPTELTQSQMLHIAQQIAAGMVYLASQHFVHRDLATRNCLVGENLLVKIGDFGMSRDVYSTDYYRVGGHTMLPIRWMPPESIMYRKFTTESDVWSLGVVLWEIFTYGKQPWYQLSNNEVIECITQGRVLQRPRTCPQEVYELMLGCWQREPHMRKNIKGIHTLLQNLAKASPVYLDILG

`COc1cncc(-c2cn[nH]c2/C=C/c2ccc(NC(=O)Nc3cc(C(C)(C)C(F)(F)F)on3)c(Cl)c2)c1` gave an IC50 [1] of 0.0867 µM, an Activity [2] of 57.96% and an Activity [3] of 12.51%. It also gave an Activity [4] of 3.57%, an Activity [5] of 11.11% and an Activity [6] of 1.87%. The viability at 0.3 µM [7] was 22.5%, the viability at 0.03 µM [8] was 76.8% and the Activity [9] was 69.43%. It also gave an Activity [10] of 28.68%, an Activity [11] of 0.49% and a viability at 0.03 µM [12] of 87.4%. It also gave an Activity [13] of 0.79%, an IC50 [14] of 0.162 µM and an Activity [15] of 3.34%. It also gave an Activity [16] of 56.2%, an Activity [17] of 23.17% and an Activity [18] of 32.46%. For the same compound, the inhibition in vivo at 25 mg/kg (BaF3) was 39.7%, the viability at 0.1 µM [19] was 74% and the Activity [20] was 0.47%. It also gave a viability at 0.01 µM [21] of 87.1%, an Activity [22] of 74.7% and an Activity [23] of 2.8%.
